# Where two headings read alike, the source gives them in different places. Ends that are not written are not given here.
# Legend:
# [1] = test system: human red blood cells (hRBC); format: cell-based; settings: red cells of human
# Protocol: The ability of the antimicrobial peptides to lyse human red blood cells (hRBC) was analyzed. The Red Blood Cell Test assay provides a simple test system that assesses the membranolytic activity of test materials. It is suitable as a screening assay for hemolytic properties. Hemoglobin release is a useful endpoint of cell membrane integrity. Released hemoglobin is detected by measuring absorbance at 540 nm. Normally, the concentration resulting in 50% hemolysis relative to a totally lysed sample (HL50) would be calculated; however due to the low hemolytic activity of the tested peptides, this was not done in this Example. An 8% RBC suspension (12 days old) was used in the present test setup.
# Since the peptides were dissolved in 0.01% acetic acid, vehicle control of the 0.01% acetic acid was included. PBS with 25%, 10%, and 5% 0.01% acetic acid was included on both plates.
# To verify that a dose/response effect exists, the hemolytic activity of SDS was also tested.
# [2] = test system: E. coli TOP10; test: Suicide expression system (SES) growth inhibition; format: cell-based
# [3] = Table 4, variants of SEQ ID NO:10, re-tested in the Bioscreen C
# [4] = Table 5, mixed-motif library, re-tested in the Bioscreen C
substance,measurement,setting,value
RRRPRPVPRPFPRPVPRPLPRPFPRPF [SEQ ID NO: 61],Hemolysis (%),[1]; 47 micrograms/ml,16%
same,Hemolysis (%),[1]; 94 micrograms/ml,16%
same,Hemolysis (%),[1]; 188 micrograms/ml,16%
same,Hemolysis (%),[1]; 375 micrograms/ml,17%
RRRPFRPPFRPPFRPPVRPPVRPPFRP [SEQ ID NO: 79],Hemolysis (%),[1]; 47 micrograms/ml,16%
same,Hemolysis (%),[1]; 94 micrograms/ml,16%
same,Hemolysis (%),[1]; 188 micrograms/ml,17%
same,Hemolysis (%),[1]; 375 micrograms/ml,17%
RRRPPRLPRPFPVRPPPRFPRPFPLRP [SEQ ID NO: 239],Hemolysis (%),[1]; 47 micrograms/ml,19%
same,Hemolysis (%),[1]; 94 micrograms/ml,16%
same,Hemolysis (%),[1]; 188 micrograms/ml,16%
same,Hemolysis (%),[1]; 375 micrograms/ml,18%
69 (RRRPIRPPFRPPFRPPLRPPFRPPIRP; Synthetic antimicrobial peptide) [compound 69],Growth inhibition (%),[2]; [3],75%
52 (RRRPRPFPRPVPRPIPRPFPRPVPRPF; Synthetic antimicrobial peptide) [compound 52],Growth inhibition (%),"[2]; Table 3, variants of SEQ ID NO:5, re-tested in the Bioscreen C",53%
73 (RRRPFRPPVRPPFRPPVRPPIRPPVRP; Synthetic antimicrobial peptide) [compound 73],Growth inhibition (%),[2]; [3],65%
268 (RRRPPRLPRPLPFRPPPRVPRPVPLRP; Synthetic antimicrobial peptide) [compound 268],Growth inhibition (%),[2]; [4],93%
106 (RRRPFRPPFRPPFRPPIRPPIRPPLRP; Synthetic antimicrobial peptide) [compound 106],Growth inhibition (%),[2]; [3],75%
170 (RRRPIRPPFRPPFRPPFRPPVRPPFRP; Synthetic antimicrobial peptide) [compound 170],Growth inhibition (%),[2]; [3],80%
292 (RRRPPRLPRPLPVRPPPRVPRPVPFRP; Synthetic antimicrobial peptide) [compound 292],Growth inhibition (%),[2]; [4],93%
110 (RRRPFRPPLRPPFRPPIRPPIRPPVRP; Synthetic antimicrobial peptide) [compound 110],Growth inhibition (%),[2]; [3],73%
68 (RRRPIRPPFRPPFRPPLRPPVRPPFRP; Synthetic antimicrobial peptide) [compound 68],Growth inhibition (%),[2]; [3],78%
3 (RRRRFPPRFPPRFPPRFPPRFPPRFPP; Synthetic antimicrobial peptide) [compound 3],Growth inhibition (%),"[2]; Table 1, 0.1% inducer (arabinose), pBAD/gIIIA in E. coli TOP10, Bioscreen C 37° C., end point OD450 vs control vector",43%
134 (RRRPFRPPFRPPFRPPVRPPLRPPVRP; Synthetic antimicrobial peptide) [compound 134],Growth inhibition (%),[2]; [3],68%

# Reference: patent publication US7833967B2, “Synthetic antimicrobial polypeptides” (priority 2003, dated 2010)
